Assay results reported in US7267718B2, “Pullulan film compositions” (Warner-Lambert Company, LLC, priority 2000, dated 2007).

Assay: Pullulan film gliding performance, slanted plane test (smallest gliding angle of film-coated glass plates)
Assay type: physicochemical
Conditions: smaller angle = better
Method: […] The mixture is heated to 70° C. under stirring for complete solubilisation and then the stirring is reduced for defoaming. The solution then is used to cast on glass plates of 4 mm thickness to form pullulan films of about 100 μm thickness after drying at room conditions. The pullulan film gliding performance is evaluated by a test on a slanted plan, a method commonly used by gelatine producers. The method determines the smallest angle of inclination of glass plate to provoke the gliding of a film coated glass plate over another one with films face to face. Consequently, the smaller the gliding angle, the better the film gliding performance.

[1] = surfactant 500 ppm/pullulan, cast pullulan film about 100 μm with kappa-carrageenan and potassium acetate
[2] = surfactant 1000 ppm, cast pullulan film about 100 μm

Pullulan gliding performance (°) [1] [°] | Pullulan gliding performance (°) [2] [°] | Pullulan gliding performance (°) (surfactant 5000 ppm, cast pullulan film about 100 μm) | Molecule
9 | 7 | – | Sorbitan oleate
10 | 8 | – | Sorbitan laurate
12 | 12 | – | Polysorbate 20
9 | 5 | 6 | CCCCCCCCCCCCOS(=O)(=O)[O-].[Na+] [SLS, sodium lauryl sulphate]
10 | 9 | – | Polysorbate 80
